One compound from US10463730B2 (priority 2003, dated 2019) can be followed below.

The test concerns xenogeneic GI-101A solid breast carcinoma tumors. Also noted: species or system nu-/nu-mice. As to conditions: in vivo.

Molecules are shown by their SMILES.

Take `Nc1nc2c(ncn2COC(CO)CO)c(=O)[nH]1` [PBS+GCV, gancyclovir]: the “Increase of average volume of tumors” value is recorded as 91.8%.
